Patent US20090203694A1, “INHIBITORS OF UNDECAPRENYL PYROPHOSPHATE SYNTHASE” (priority 2006, published 2009)

Biological target: T1, Streptococcus pneumonia UPPS (Streptococcus pneumoniae serotype 4, UniProt Q97SR4)
T1 construct: His-tag (N)
T1 sequence (Q97SR4 1-252): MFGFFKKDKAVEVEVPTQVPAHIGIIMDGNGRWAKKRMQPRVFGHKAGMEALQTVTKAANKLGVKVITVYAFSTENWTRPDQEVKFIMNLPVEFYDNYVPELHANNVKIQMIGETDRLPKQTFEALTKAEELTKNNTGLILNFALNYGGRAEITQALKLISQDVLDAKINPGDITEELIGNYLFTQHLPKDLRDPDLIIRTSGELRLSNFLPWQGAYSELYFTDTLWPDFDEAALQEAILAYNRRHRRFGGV
Test: Determination of binding to UPPS (inorganic phosphate release, Biomol Green)
Assay type: biochemical
Details: FPP 3 μM, IPP 16 μM; 20 minutes preincubation with compound
Method: The ability of several of the compounds described herein to bind to UPPS was also tested as follows.
Streptococcus pneumonia UPPS was cloned into pET-15b, expressed and purified as an N-terminal His-tag fusion using affinity chromatography. The working stock of UPPS was prepared by mixing the purified enzyme with liposome made from E. coli total lipids extract (Avanti Polar Lipis, Inc., Alabaster, Ala.). The substrates FPP and IPP and inorganic pyrophosphatase were purchased from Sigma. Biomol Green reagent was from Biomol International (Plymouth Meeting, Pa.). All other chemicals were from Sigma at the highest grade.
For testing a compound, UPPS was first incubated with the compound at desired concentrations for 20 minutes in the UPPS reaction buffer that contained 100 mM Tris-HCl, pH 7.3, 50 mM KCl, 1 mM MgCl2, 0.01% Triton X-100, and 20 μg/mL BSA. The reaction was then initiated by the addition of a mixture of FPP, IPP, and E. coli […] made in the same UPPS reaction buffer. The final concentrations for FPP and IPP were 3 μM and 16 μM, respectively. The inorganic phosphate generated in the reactions was then quantified with Biomol Green reagent, which was then used to determine the rate of the reaction and the inhibitory activity of the compound.
For example, the results of the binding assay for several compounds are shown the table below: […]

SMILES | IC50 [µM]
Cc1ccc2nc(-c3ccc(NC(=O)C4=C(O)C(Cc5ccccc5)NC4=O)cc3)sc2c1 (centres unmarked) [compound 4] | 10 to 50
O=C(Nc1ccc(C2CCCCC2)cc1)C1=C(O)C(Cc2ccccc2)NC1=O (centres unmarked) [compound 5] | 0.01 to 10
Cc1ccc2nc(-c3ccc(NC(=O)C4=C(O)C(c5ccccc5)NC4=O)cc3)sc2c1 (centres unmarked) [compound 6] | 0.01 to 10
O=C(Nc1ccc(N2CCCCC2)cc1)C1=C(O)C(c2ccccc2)NC1=O (centres unmarked) [compound 7] | 0.01 to 10
N#Cc1ccccc1Oc1cccc(NC(=O)C2=C(O)C(c3ccccc3)NC2=O)c1 (centres unmarked) [compound 8] | 0.01 to 10
O=C(Nc1ccc(Oc2ncc(C(F)(F)F)cc2Cl)cc1)C1=C(O)C(Cc2ccccc2)NC1=O (centres unmarked) [compound 9] | 0.01 to 10
O=C(Nc1ccc(Cc2ccccc2)cc1)C1=C(O)C(Cc2ccccc2)NC1=O (centres unmarked) [compound 10] | 0.01 to 10
O=C(Nc1ccc(C2CCCCC2)cc1)C1=C(O)C(c2ccccc2)NC1=O (centres unmarked) [compound 11] | 0.01 to 10
O=C(Nc1ccc(N2CCOCC2)cc1)C1=C(O)C(c2ccccc2)NC1=O (centres unmarked) [compound 13] | 10 to 50
O=C(Nc1ccc(-c2ccccc2)cc1)C1=C(O)C(c2ccccc2)NC1=O (centres unmarked) [compound 14] | 0.01 to 10
CCC1C(O)=C(C(=O)Nc2ccc(C3CCCCC3)cc2)C(=O)N1C (centres unmarked) [compound 15] | 10 to 50
O=C(Nc1ccc(-c2ccccc2)cc1)C1=C(O)C(c2ccccc2)NC1=O (centres unmarked) [compound 16] | 0.01 to 10
O=C(Nc1ccc(C2CCCCC2)cc1)C1=C(O)CN(Cc2ccccc2)C1=O [compound 19] | 0.01 to 10
O=C(NC1CCCCC1)C1=C(O)C(Cc2ccccc2)NC1=O (centres unmarked) [compound 23] | > 50
CC(C)CC1NC(=O)C(C(=O)NCc2ccc(-c3cccs3)cc2)=C1O (centres unmarked) [compound 36] | 0.01 to 10
O=C(Nc1cccc(Oc2ccccc2)c1)C1=C(O)C(CC2CCCCC2)NC1=O (centres unmarked) [compound 49] | 0.01 to 10
CCCCCCOc1ccc(NC(=O)C2=C(O)C(CC(C)C)NC2=O)cc1 (centres unmarked) [compound 52] | 0.01 to 10
O=C(NCCSCc1c(Cl)cccc1Cl)C1=C(O)C(Cc2ccccc2)NC1=O (centres unmarked) [compound 54] | 10 to 50
O=C(Nc1ccc(C2CCCCC2)cc1)C1=C(O)C(c2ccccc2)NC1=O (centres unmarked) [compound 56] | 0.01 to 10
N#Cc1ccc(-c2ccc(NC(=O)C3=C(O)C(Cc4ccccc4)NC3=O)cc2)cc1 (centres unmarked) [compound 66] | 0.01 to 10

SMILES | IC50 [µM]
CCCCCCOc1ccc(NC(=O)C2=C(O)C(CCc3ccccc3)NC2=O)cc1 (centres unmarked) [compound 77] | 0.01 to 10
O=C(Nc1cccc(Oc2ccccc2)c1)C1=C(O)C(CCc2ccccc2)NC1=O (centres unmarked) [compound 80] | 0.01 to 10
O=C(Nc1ccc(N2CCCCC2)cc1)C1=C(O)C(CCc2ccccc2)NC1=O (centres unmarked) [compound 97] | 0.01 to 10
O=C(Nc1ccc(Nc2ccccc2)cc1)C1=C(O)C(CC2CCCCC2)NC1=O (centres unmarked) [compound 103] | 0.01 to 10
O=C(Nc1ccc(-c2ccccc2)cc1)C1=C(O)C(Cc2c[nH]cn2)NC1=O (centres unmarked) [compound 113] | 0.01 to 10
O=C(Nc1ccc(C2CCCCC2)cc1)C1=C(O)C(c2ccccc2)NC1=O (centres unmarked) [compound 116] | 0.01 to 10
CC(C)CC1NC(=O)C(C(=O)Nc2ccc(Oc3nc4ccccc4s3)cc2)=C1O (centres unmarked) [compound 126] | 0.01 to 10
O=C(Nc1ccc(N2CCCCC2)cc1)C1=C(O)C(CCc2ccccc2)NC1=O (centres unmarked) [compound 143] | 0.01 to 10
CCN1CCN(c2ccc(NC(=O)C3=C(O)C(CC(C)C)NC3=O)cc2)CC1 (centres unmarked) [compound 148] | 0.01 to 10
O=C(Nc1ccc(N2CCCCC2)cc1)C1=C(O)CC(Cc2ccccc2)NC1=O (centres unmarked) [compound 174] | 0.01 to 10
COc1ccc(-c2nc(NC(=O)C3=C(O)CC(Cc4ccccc4)NC3=O)nn2-c2ccc(CO)cc2)cc1 (centres unmarked) [compound 177] | 0.01 to 10
CC(C)CC1CC(O)=C(C(=O)Nc2ccc(C3CCCCC3)cc2)C(=O)N1 (centres unmarked) [compound 182] | 0.01 to 10
CC(C)CC1CC(O)=C(C(=O)Nc2ccc(OC(F)(F)F)cc2)C(=O)N1 (centres unmarked) [compound 183] | 0.01 to 10
O=C(Nc1ccc(C2CCCCC2)cc1)C1=C(O)CC(C2CCCCC2)NC1=O (centres unmarked) [compound 185] | 0.01 to 10
O=C(Nc1ccc(-c2ccccc2)cc1)C1=C(O)CC(Cc2ccccc2)NC1=O (centres unmarked) [compound 187] | 0.01 to 10
CC(C)CC1CC(O)=C(C(=O)Nc2ccc(-n3cccn3)cc2)C(=O)N1 (centres unmarked) [compound 192] | 0.01 to 10
O=C(Nc1ccc(-n2cccn2)cc1)C1=C(O)CC(C2CCCCC2)NC1=O (centres unmarked) [compound 198] | 0.01 to 10
O=C(Nc1ccc(S(=O)(=O)c2ccccc2)cc1)C1=C(O)CC(C2CCCCC2)NC1=O (centres unmarked) [compound 206] | 0.01 to 10
O=C1NCC(CC2CCCCC2)C(O)=C1C(=O)Nc1ccc(-n2ccnc2)cc1 (centres unmarked) [compound 221] | 0.01 to 10

Now from value to compound:

IC50 [µM] | SMILES
0.01 to 10 | COc1cccc(NC(=O)C2=C(O)C(c3ccccc3)NC2=O)c1 (centres unmarked) [compound 12]
> 50 | O=C(Nc1ccc(CO)cc1)C1=C(O)C(Cc2ccccc2)NC1=O (centres unmarked) [compound 22]
0.01 to 10 | CC(C)CC1NC(=O)C(C(=O)Nc2cccc(Oc3ccccc3)c2)=C1O (centres unmarked) [compound 70]
0.01 to 10 | CC(C)CC1NC(=O)C(C(=O)Nc2ccc(-c3ccccc3)cc2)=C1O (centres unmarked) [compound 81]
0.01 to 10 | O=C(Nc1ccc(Oc2ccccc2)cc1)C1=C(O)C(CCc2ccccc2)NC1=O (centres unmarked) [compound 86]
0.01 to 10 | CC(C)CC1NC(=O)C(C(=O)Nc2ccc(Nc3ccccc3)cc2)=C1O (centres unmarked) [compound 104]
0.01 to 10 | CC(C)CC1NC(=O)C(C(=O)Nc2ccc(Oc3ccccc3)cc2)=C1O (centres unmarked) [compound 123]
0.01 to 10 | O=C(Nc1ccc(C2CCCCC2)cc1)C1=C(O)CC(c2ccccc2)NC1=O (centres unmarked) [compound 164]
0.01 to 10 | O=C(Nc1ccc(OC2CCCCC2)cc1)C1=C(O)CC(c2ccccc2)NC1=O (centres unmarked) [compound 166]
0.01 to 10 | O=C(Nc1ccc(C(F)(F)F)cc1)C1=C(O)CC(c2ccccc2)NC1=O (centres unmarked) [compound 167]
0.01 to 10 | O=C(Nc1ccc(N2CCCCC2)cc1)C1=C(O)CC(c2ccccc2)NC1=O (centres unmarked) [compound 168]
0.01 to 10 | O=C(Nc1ccc(-c2ccccc2)cc1)C1=C(O)CC(c2ccccc2)NC1=O (centres unmarked) [compound 169]
0.01 to 10 | COc1ccc(NC(=O)C2=C(O)CC(c3ccccc3)NC2=O)cc1 (centres unmarked) [compound 170]
0.01 to 10 | O=C(Nc1ccc(-n2cccn2)cc1)C1=C(O)CC(c2ccccc2)NC1=O (centres unmarked) [compound 181]
0.01 to 10 | O=C(Nc1ccc(Oc2ccccc2)cc1)C1=C(O)CC(C2CCCCC2)NC1=O (centres unmarked) [compound 189]
10 to 50 | CC(C)CC1CC(O)=C(C(=O)Nc2ccc(S(=O)(=O)c3ccccc3)cc2)C(=O)N1 (centres unmarked) [compound 202]
> 50 | CC1CC(O)=C(C(=O)Nc2ccc(Oc3ccccc3)cc2)C(=O)N1 (centres unmarked) [compound 223]
